Test results published in US20090221559A1 (priority 2005, published 2009).
pEC50, pIC50: −log10 of the molar value. Read-outs that look alike come from different tables or passages of the source.

Key:
[1] = target: T1, HCV NS5B polymerase (His-tagged, C-terminal 21 amino acid deleted NS5B, HC-J4) (Hepatitis C virus genotype 1b, UniProt O92972); experiment: NS5b polymerase assay (biochemical RdRp assay, 3H-GTP incorporation, SPA beads); parameters: species or system HCV genotype 1b; conditions: for pIC50: 3H-GTP incorporation, 2 h at 25° C.; for IC50: NS5B Polymerase Assay IC50 (μM)
T1 construct: The cDNA encoding NS5B amino acid 1-570 (HC-J4, genotype 1b); His tag (His6, from pET-21b) (C); made in house; host or cells: E. coli BL21 (DE3)
Summary of the method: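 3H-GTP incorporation into newly made RNA was captured on SPA beads added in EDTA after 2 h at 25 °C. Compounds in DMSO met preformed enzyme–template complex (200 nM truncated His-NS5B, HC-J4 1b; biotin-oligo(rG13)/poly(rC)) for 15 min at RT, then 600 nM GTP, 5 mM MgCl2, Tris pH 7.5 started polymerization.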

[2] = system: HCV replicon RNA replication in Huh-7 luc/neo (Huh-Luc) cells; experiment: HCV replicon assay (stable replicon cell reporter assay, luciferase read-out); type: cell-based, HCV type 1b; conditions: for EC50: read-out: Replicon Assay EC50 (μM), Huh-Luc cells, incubation of three days, luciferase activity
Summary of the method: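 Three-day compound exposure used Huh-Luc cells, which harbour an autonomously replicating genotype 1b NS3-NS5B replicon expressing luciferase and neo^R. Luciferase signal served as the replication read-out, and dose-response curves came from several concentrations per compound.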

[3] = NS5B Polymerase Assay IC50, 200 nM enzyme
[4] = Hepatitis C virus, Huh-7, 72 h, read-out: Replicon Assay EC50, Huh-Luc cells, three days incubation, luciferase activity
[5] = 200 nM enzyme, read-out: NS5B Polymerase Assay IC50
[6] = Huh-Luc cells, three days incubation, luciferase activity, read-out: Replicon Assay EC50

T1 sequence (O92972 2417-3000, looked up, stated change not applied): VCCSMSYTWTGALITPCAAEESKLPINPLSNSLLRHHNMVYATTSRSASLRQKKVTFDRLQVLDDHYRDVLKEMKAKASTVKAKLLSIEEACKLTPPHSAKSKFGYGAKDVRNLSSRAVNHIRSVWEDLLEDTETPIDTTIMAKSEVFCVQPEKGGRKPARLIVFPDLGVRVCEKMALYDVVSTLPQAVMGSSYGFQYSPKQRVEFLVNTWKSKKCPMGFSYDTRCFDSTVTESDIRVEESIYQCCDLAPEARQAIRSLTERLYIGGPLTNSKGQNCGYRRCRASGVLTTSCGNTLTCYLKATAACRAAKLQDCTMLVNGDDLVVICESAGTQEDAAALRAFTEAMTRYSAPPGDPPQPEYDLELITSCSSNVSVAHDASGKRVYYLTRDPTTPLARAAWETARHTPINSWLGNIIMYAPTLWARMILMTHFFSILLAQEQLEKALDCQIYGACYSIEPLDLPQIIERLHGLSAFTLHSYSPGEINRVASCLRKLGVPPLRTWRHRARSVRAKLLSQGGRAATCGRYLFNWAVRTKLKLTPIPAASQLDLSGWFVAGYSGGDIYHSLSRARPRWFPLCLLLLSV

## COc1ccc(C2C3=C(CC(C)(C)CC3=O)Nc3ccccc3N2C(=O)CC(C)C)c(OC)c1 (centres unmarked) [compound 30]
[1]; [3]
  pIC50: < 4.37
[2]; [4]
  pEC50: 4.64

## CCCCCC(=O)N1c2ccccc2NC2=C(C(=O)CC(c3ccc(OC)cc3)C2)C1c1ccc(Cl)cc1 (centres unmarked) [compound 232]
[1]; [5]
  pIC50: < 4.48
[2]; [6]
  pEC50: 4.65

## CC(=O)N1c2ccccc2NC2=C(C(=O)CC(C)(C)C2)C1c1ccc(OCc2ccccn2)cc1 (centres unmarked) [compound 141, 10-acetyl-3,3-dimethyl-11-[4-(2-pyridylmethoxy)phenyl]-2,3,4,5,10,11-hexahydro-1H-dibenzo[b,e][1,4]diazepin-1-one]
[1]; [3]
  pIC50: 5.10
[2]; [4]
  pEC50: 4.79

## CSc1ccc(C2Nc3ccccc3NC3=C2C(=O)CC(c2ccc4c(c2)OCO4)C3)cc1 (centres unmarked) [compound 368]
[1]
  IC50: > 42.7 µM
[2]; Hepatitis C virus, Huh-7, 72 h
  EC50: 14.9 µM

## CC(=O)N1c2ccccc2NC2=C(C(=O)CC(C)(C)C2)C1c1cc(Cl)cc(Cl)c1 (centres unmarked) [compound 133, 10-acetyl-11-[3,5-dichlorophenyl]-3,3-dimethyl-2,3,4,5,10,11-hexahydro-1H-dibenzo[b,e][1,4]diazepin-1-one]
[1]; [3]
  pIC50: < 3.88
[2]; [4]
  pEC50: 4.96

## CC(=O)N1c2ccccc2NC2=C(C(=O)CC(c3ccccc3)C2)C1c1ccc(C)cc1 (mixture of isomers) [compound 199]
[1]; [5]
  pIC50: < 4.37
[2]; [6]
  pEC50: 4.94

## CCN(CC)c1ccc(C2CC(=O)C3=C(C2)Nc2ccccc2N(C(=O)c2ccccc2)C3c2ccco2)cc1 (centres unmarked) [compound 295]
[1]; [3]
  pIC50: < 4.37
[2]; [4]
  pEC50: 4.67

## O=C1C[C@@H](c2ccccc2)CC2=C1[C@H](c1ccc3c(c1)OCO3)Nc1ccc(C(=O)c3ccccc3)cc1N2 [compound 491]
[1]
  IC50: > 42.7 µM
[2]; Hepatitis C virus, Huh-7, 72 h
  EC50: 12.1 µM

## CC(=O)N1c2ccccc2NC2=C(C(=O)CC(C)(C)C2)C1c1ccc(OC(C)C)cc1 (centres unmarked) [compound 114]
[1]; [3]
  pIC50: < 4.37
[2]; [4]
  pEC50: < 4.49

## CCOc1ccccc1C1C2=C(CC(C)(C)CC2=O)Nc2ccccc2N1C(C)=O (centres unmarked) [compound 125]
[1]; [3]
  pIC50: < 4.37
[2]; [4]
  pEC50: < 4.49

## CC(=O)N1c2ccccc2NC2=C(C(=O)CC(C)(C)C2)C1c1cc(Cl)c(OCc2ccccc2)c(Cl)c1 (centres unmarked) [compound 143, 10-acetyl-11-[4-benzyloxy-3,5-dichlorophenyl]-3,3-dimethyl-2,3,4,5,10,11-hexahydro-1H-dibenzo[b,e][1,4]diazepin-1-one]
[1]; [3]
  pIC50: 4.79
[2]; [4]
  pEC50: 5.20

## COc1ccc(C2CC(=O)C3=C(C2)Nc2ccccc2NC3c2cc(OC)c(OC)cc2Br)cc1 (centres unmarked) [compound 400]
[1]
  IC50: > 42.7 µM
[2]; Hepatitis C virus, Huh-7, 72 h
  EC50: 3.28 µM

## CC(=O)N1c2ccccc2NC2=C(C(=O)CC(c3ccccc3OCc3ccccc3)C2)C1c1cccc(OCc2ccccc2)c1 (single isomer, unassigned) [compound 189]
[1]; [3]
  pIC50: < 4.37
[2]; read-out: Replicon Assay EC50, Huh-Luc cells, three days incubation, luciferase activity
  pEC50: 5.40

## CC(=O)N1c2ccccc2NC2=C(C(=O)CC(C)(C)C2)C1c1ccc(-c2cccc(C(=O)O)c2)o1 (centres unmarked) [compound 280]
[1]; [3]
  pIC50: < 4.37
[2]; [4]
  pEC50: < 4.49

## CCCCCC(=O)N1c2ccccc2NC2=C(C(=O)CC(c3ccc(OC)c(OC)c3)C2)C1c1cccc(Cl)c1 (mixture of isomers) [compound 205]
[1]; [5]
  pIC50: < 4.48
[2]; [6]
  pEC50: 5.00

## CC(=O)N1c2cccc(Br)c2NC2=C(C(=O)CC(C)(C)C2)C1c1ccc(Cl)cc1Cl (centres unmarked) [compound 312]
[1]; [3]
  pIC50: 5.21
[2]; [4]
  pEC50: 5.11

## CC1(C)CC(=O)C2=C(C1)Nc1ccccc1N(C(=O)c1ccccc1)C2c1ccc(Br)cc1 (centres unmarked) [compound 74]
[1]; [3]
  pIC50: < 4.37
[2]; [4]
  pEC50: < 4.57

## CCOc1cc(C2C3=C(CC(C)(C)CC3=O)Nc3ccccc3N2C(C)=O)ccc1O (centres unmarked) [compound 121]
[1]; [3]
  pIC50: < 4.37
[2]; [4]
  pEC50: < 4.49

## CC(C)CC(=O)N1c2ccccc2NC2=C(C(=O)CC(C)(C)C2)C1c1cccnc1 (centres unmarked) [compound 270]
[1]; [3]
  pIC50: < 4.48
[2]; [4]
  pEC50: 4.59

## CC1(C)CC(=O)C2=C(C1)Nc1ccccc1NC2c1cccc(OC(=O)c2ccc(Cl)cc2)c1 (centres unmarked) [compound 431, 11-[3-(4-Chlorobenzoyloxy)phenyl]-3,3-dimethyl-2,3,4,5,10,11-hexahydro-dibenzo[b,e][1,4]diazepin-1-one]
[1]
  IC50: 82.9 µM
[2]; Hepatitis C virus, Huh-7, 72 h
  EC50: > 100 µM

## COc1ccc(C2CC(=O)C3=C(C2)Nc2ccccc2N(C(C)=O)C3c2cccc([N+](=O)[O-])c2)cc1OC (centres unmarked) [compound 172]
[1]; [5]
  pIC50: < 4.37
[2]; [6]
  pEC50: 4.95

## CCCCC(=O)N1c2ccccc2NC2=C(C(=O)CC(C)(C)C2)C1c1ccc(Cl)cc1 (centres unmarked) [compound 7]
[1]; [3]
  pIC50: < 4.37
[2]; [4]
  pEC50: 5.08

## Cc1ccc(C2CC(=O)C3=C(C2)Nc2ccccc2N(C(=O)c2ccccc2)C3c2ccccc2)cc1 (mixture of isomers) [compound 209]
[1]; [5]
  pIC50: < 4.48
[2]; [6]
  pEC50: 4.93

## COc1ccc(C2CC(=O)C3=C(C2)Nc2ccccc2NC3c2cccc(F)c2)cc1 (centres unmarked) [compound 327]
[1]
  IC50: > 33.3 µM
[2]; Hepatitis C virus, Huh-7, 72 h
  EC50: 12.5 µM

## CC1(C)CC(=O)C2=C(C1)Nc1ccccc1N(C(=O)c1ccccc1)C2c1ccccc1 (centres unmarked) [compound 92]
[1]; [3]
  pIC50: < 4.37
[2]; [4]
  pEC50: 4.76

## Cc1ccc(C2C3=C(CC(c4cccc([N+](=O)[O-])c4)CC3=O)Nc3ccccc3N2C(=O)c2ccccc2)cc1 (mixture of isomers) [compound 212]
[1]; [5]
  pIC50: < 4.37
[2]; [6]
  pEC50: 4.62

## COc1cc(C2Nc3ccccc3NC3=C2C(=O)CC(c2ccc(Cl)cc2)C3)cc(Br)c1O (centres unmarked) [compound 342]
[1]
  IC50: > 42.7 µM
[2]; Hepatitis C virus, Huh-7, 72 h
  EC50: 4.19 µM

## CC1(C)CC(=O)C2=C(C1)Nc1ccccc1NC2c1coc2c(Cl)cc(Cl)cc2c1=O (centres unmarked) [compound 502]
[1]
  IC50: > 42.7 µM
[2]; Hepatitis C virus, Huh-7, 72 h
  EC50: 13.2 µM

## COc1ccc(C2CC(=O)C3=C(C2)Nc2ccccc2NC3c2cccc(C)c2)cc1 (centres unmarked) [compound 391]
[1]
  IC50: > 42.7 µM
[2]; Hepatitis C virus, Huh-7, 72 h
  EC50: 18.5 µM

## CCCCCOc1ccc(C2C3=C(CC(C)(C)CC3=O)Nc3ccccc3N2C(=O)c2ccccc2F)cc1 (centres unmarked) [compound 67]
[1]; [3]
  pIC50: < 4.37
[2]; [4]
  pEC50: 5.25

## COc1ccc(C2C3=C(CC(c4ccc(C)cc4)CC3=O)Nc3ccccc3N2C(=O)c2ccccc2)cc1 (mixture of isomers) [compound 188]
[1]; [5]
  pIC50: < 4.48
[2]; [6]
  pEC50: 5.29

## CCCCC(=O)N1c2ccccc2NC2=C(C(=O)CC(C)(C)C2)C1c1ccc(OC)cc1OC (centres unmarked) [compound 1]
[1]; [3]
  pIC50: < 4.37
[2]; [4]
  pEC50: 5.07

## COc1ccc(OC)c(C2C3=C(CC(C)(C)CC3=O)Nc3ccccc3N2C(=O)Cc2ccccc2)c1 (centres unmarked) [compound 22]
[1]; [3]
  pIC50: < 4.37
[2]; [4]
  pEC50: 4.97

## CC(C)CC(=O)N1c2ccccc2NC2=C(C(=O)CC(C)(C)C2)C1c1ccc(Cl)c(Cl)c1 (centres unmarked) [compound 78]
[1]; [3]
  pIC50: < 4.48
[2]; [4]
  pEC50: 4.65

## CC1(C)CC(=O)C2=C(C1)Nc1ccccc1N(C(=O)Cc1ccc(Cl)cc1)C2c1cccnc1 (centres unmarked) [compound 247]
[1]; [3]
  pIC50: < 4.48
[2]; [4]
  pEC50: 4.76

## Cc1ccc(C2C3=C(CC(c4ccccc4F)CC3=O)Nc3ccccc3N2C(=O)c2ccccc2)cc1 (centres unmarked) [compound 166]
[1]; [5]
  pIC50: < 4.37
[2]; [6]
  pEC50: 5.40

## CC(=O)N1c2ccccc2NC2=C(C(=O)CC(c3cccc([N+](=O)[O-])c3)C2)C1c1ccccc1 (centres unmarked) [compound 234]
[1]; [5]
  pIC50: < 4.44
[2]; [6]
  pEC50: 5.41

## CCCOc1ccccc1C1CC(=O)C2=C(C1)Nc1ccccc1N(C(=O)CC)C2c1ccc(OC)cc1 (centres unmarked) [compound 220]
[1]; [5]
  pIC50: < 4.37
[2]; [6]
  pEC50: 5.51

## CC(=O)N1c2ccccc2NC2=C(C(=O)CC(C)(C)C2)C1c1ccc(Oc2ccccc2Br)cc1 (centres unmarked) [compound 147, 10-acetyl-11-[4-(2-bromophenoxy)phenyl]-3,3-dimethyl-2,3,4,5,10,11-hexahydro-1H-dibenzo[b,e][1,4]diazepin-1-one]
[1]; [3]
  pIC50: 5.71
[2]; [4]
  pEC50: 5.37

## COc1ccc(C2C3=C(CC(C)(C)CC3=O)Nc3ccccc3N2C(C)=O)cc1OCc1ccccc1 (centres unmarked) [compound 48]
[1]; [5]
  pIC50: 4.80
[2]; [6]
  pEC50: 4.78

## CC(C)CC(=O)N1c2ccccc2NC2=C(C(=O)CC(C)(C)C2)C1c1c(F)cccc1Cl (centres unmarked) [compound 43]
[1]; [3]
  pIC50: < 4.37
[2]; [4]
  pEC50: 5.04

## CC1(C)CC(=O)C2=C(C1)Nc1ccccc1N(C(=O)c1ccccc1)C2/C=C/c1ccccc1 (centres unmarked) [compound 264]
[1]; [5]
  pIC50: < 4.37
[2]; [6]
  pEC50: 5.05

## COc1ccc(C2C3=C(CC(C)(C)CC3=O)Nc3ccccc3N2C(C)=O)c(OC)c1 (centres unmarked) [compound 132]
[1]; [3]
  pIC50: < 4.37
[2]; [4]
  pEC50: 4.89

## COc1ccc(C2Nc3ccc(C(=O)c4ccccc4)cc3NC3=C2C(=O)CC(C)(C)C3)cc1OC (centres unmarked) [compound 453]
[1]
  IC50: > 42.7 µM
[2]; Hepatitis C virus, Huh-7, 72 h
  EC50: 19.2 µM

## COc1ccc(C2CC(=O)C3=C(C2)Nc2ccccc2NC3c2ccc(C(F)(F)F)cc2)cc1 (centres unmarked) [compound 329]
[1]
  IC50: > 33.3 µM
[2]; Hepatitis C virus, Huh-7, 72 h
  EC50: 11.1 µM

## COc1ccc(C2CC(=O)C3=C(C2)Nc2ccccc2NC3c2cccc(O)c2)cc1 (centres unmarked) [compound 392]
[1]
  IC50: > 42.7 µM
[2]; Hepatitis C virus, Huh-7, 72 h
  EC50: 22.6 µM

## COc1ccc(C2CC(=O)C3=C(C2)Nc2ccccc2NC3c2cccc(OCc3ccccc3)c2)cc1 (centres unmarked) [compound 326]
[1]
  IC50: > 33.3 µM
[2]; Hepatitis C virus, Huh-7, 72 h
  EC50: 4.69 µM

## CCCCCC(=O)N1c2ccccc2NC2=C(C(=O)CC(c3ccccc3)C2)C1c1ccccc1F (centres unmarked) [compound 224]
[1]; [5]
  pIC50: < 4.48
[2]; [6]
  pEC50: 4.79

## COc1ccc([C@@H]2CC(=O)C3=C(C2)Nc2ccccc2N[C@H]3c2cc3c(cc2Br)OCO3)cc1 [compound 486]
[1]
  IC50: > 42.7 µM
[2]; Hepatitis C virus, Huh-7, 72 h
  EC50: 3.31 µM
